Reference: ChEMBL document CHEMBL3808323, “Synthesis and evaluation of novel benzylphthalazine derivatives as hedgehog signaling pathway inhibitors” (Bioorg Med Chem Lett, 2016)
Active and inactive are the calls of the source. The rule behind the calls is not given here.

Experiments:
[1] = Inhibition of hedgehog signaling (unknown origin) expressed in mouse NIH/3T3 cells by Gli-dual-luciferase reporter assay; format: cell-based; conditions: NIH3T3
[2] = AUC (0 to infinity) in Sprague-Dawley rat plasma at 2 mg/kg, iv; format: ADME, organism-based; design: dose 2 mg/kg, time infinity, route intravenous
[3] = Oral bioavailability in Sprague-Dawley rat plasma at 10 mg/kg; format: ADME, organism-based
[4] = Systemic clearance in Sprague-Dawley rat plasma at 2 mg/kg, iv; format: ADME, organism-based
[5] = Tmax in Sprague-Dawley rat plasma at 10 mg/kg, po; format: ADME, organism-based
[6] = Cmax in Sprague-Dawley rat plasma at 10 mg/kg, po; format: ADME, organism-based; design: dose 10 mg/kg, route oral
Mus musculus = experiment: Toxicity in athymic nude mouse allografted with mouse ptch+/- and p53-/- medulloblastoma cells assessed as body weight loss at 40 mg/kg, bid administered via oral gavage; format: organism-based; conditions: in vivo
[7] = AUC (0 to infinity) in Sprague-Dawley rat plasma at 10 mg/kg, po; format: ADME, organism-based; design: dose 10 mg/kg, route oral, time infinity
Medulloblastoma cell = experiment: Antitumor activity against mouse ptch+/- and p53-/- medulloblastoma cells allografted in athymic nude mouse assessed as tumor growth inhibition at 40 mg/kg, bid administered via oral gavage measured twice per week by microcaliper; format: functional, organism-based
[8] = Half life in Sprague-Dawley rat plasma at 2 mg/kg, iv; format: ADME, organism-based
[9] = Inhibition of cell proliferation in mouse ptch+/- and p53-/- medulloblastoma cells after 36 hrs by Brdu assay; format: functional
[10] = Volume of distribution at steady state in Sprague-Dawley rat plasma at 2 mg/kg, iv; format: ADME, organism-based; conditions: read-out: Vdss

Row | Compound | IC50 [1] [nM] | other results
1 | CS(=O)(=O)c1ccc(C(=O)Nc2ccc(Cl)c(-c3ccccn3)c2)c(Cl)c1 [VISMODEGIB] | 2.3 | –
2 | CC(C)(O)c1ccc(NC2CCN(c3nnc(Cc4ccccc4)c4ccccc34)CC2)nc1 | 0.58 | AUC(0-inf) [2]: 1.64 µM·h; bioavailability [3]: 40.1%; clearance [4]: 42.1 mL/min/kg; Tmax [5]: 2 h; Cmax [6]: 950 nM; Activity (Mus musculus): Non-toxic; AUC(0-inf) [7]: 3.28 µM·h; TGI (Medulloblastoma cell): Active; half-life [8]: 1.03 h; IC50 [9]: 38 nM; Vd [10]: 2.16 L/kg
3 | CCC(O)(CC)c1ccc(NC2CCN(c3nnc(Cc4ccccc4)c4ccccc34)C2)nc1 (racemic) | 2.97 | –
4 | CC(=O)c1ccc(N(C)C2CCN(c3nnc(Cc4ccccc4)c4ccccc34)CC2)nc1 | > 1000 | –
5 | CC(C)(O)c1ccc(N2CCC(Nc3nnc(Cc4ccccc4)c4ccccc34)C2)nc1 (racemic) | 9.66 | –
6 | CC(C)(O)c1ccc(N2CCN(c3nnc(Cc4ccccc4)c4ccccc34)CC2)nc1 | 7.1 | TGI (Medulloblastoma cell): Active; IC50 [9]: 44.6 nM
7 | CC(C)(O)c1ccc(NC2CCN(c3nnc(Cc4ccccc4)c4ccccc34)C2)nc1 (racemic) | 3.28 | –
8 | CN(c1ccc(C(C)(C)O)cn1)C1CCN(c2nnc(Cc3ccccc3)c3ccccc23)CC1 | 6.66 | –
9 | CCC(O)(CC)c1ccc(NC2CCN(c3nnc(Cc4ccccc4)c4ccccc34)CC2)nc1 | 10.3 | –
10 | CC(C)(O)c1ccc(N2CC3(C2)CN(c2nnc(Cc4ccccc4)c4ccccc24)C3)nc1 | > 1000 | –
11 | CC(=O)c1ccc(NC2CCN(c3nnc(Cc4ccccc4)c4ccccc34)CC2)nc1 | 2.45 | –
12 | CCOC(=O)c1ccc(NC2CCCN(c3nnc(Cc4ccccc4)c4ccccc34)C2)nc1 (racemic) | > 1000 | –
13 | CCOC(=O)c1ccc(N2CCC(Nc3nnc(Cc4ccccc4)c4ccccc34)C2)nc1 (racemic) | 45.7 | –
14 | CCC(O)(CC)c1ccc(N2CCC(Nc3nnc(Cc4ccccc4)c4ccccc34)C2)nc1 (racemic) | 3.91 | –
15 | CC(C)(O)c1ccc(NC2CCCN(c3nnc(Cc4ccccc4)c4ccccc34)C2)nc1 (racemic) | > 1000 | –
16 | CC(C)(O)c1ccc(OC2CN(c3nnc(Cc4ccccc4)c4ccccc34)C2)nc1 | 648 | –
17 | CCOC(=O)c1ccc(NC2CCN(c3nnc(Cc4ccccc4)c4ccccc34)C2)nc1 (racemic) | 8.76 | –
